PubChem BioAssay (NCI)
Values joined by “and” are separate entries in the source; they are usually repeats but may differ in a detail not shown here. Equal entries are not always repeated.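 Results reflect a 48-hour exposure of cells in 96-well plates to compound at five concentrations. The concentration for 50% growth inhibition is given as GI50. TGI marks complete inhibition of growth.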

How the values were obtained:
Test in all cases: NCI anticancer screen, dose series, 48 h
[1] = tested on: ACHN renal
[2] = tested on: OVCAR-3 ovarian
[3] = tested on: MCF7 breast
[4] = tested on: NCI-H226 lung
[5] = tested on: SK-OV-3 ovarian
[6] = tested on: HOP-62 NSCLC
[7] = tested on: RXF 393 renal
[8] = tested on: UACC-62 melanoma
[9] = tested on: A549 NSCLC
[10] = tested on: HCT-116 colon

| SMILES | GI50 [1] | TGI [1] | TGI [2] | TGI [3] [µM] | GI50 [4] [µM] | TGI [4] | GI50 [5] [nM] | TGI [6] | TGI [7] | TGI [8] | GI50 [2] | GI50 [3] [nM] | GI50 [9] [µM] | TGI [9] | TGI [5] | GI50 [6] [nM] | GI50 [7] [nM] | GI50 [10] | TGI [10] | GI50 [8] [nM] |
| --- | --- | --- | --- | --- | --- | --- | --- | --- | --- | --- | --- | --- | --- | --- | --- | --- | --- | --- | --- | --- |
| CCOCC(=O)N[C@H]1CCc2cc(OC(=O)COCC)c(OC)c(OC)c2-c2ccc(SC)c(=O)cc21 | 83.1 nM | > 100 µM | 0.0166 µM | > 100 | 0.0264 | 0.0917 µM and 0.0893 µM | 55.8 | > 100 µM | > 100 µM | > 100 µM | – | – | – | – | – | – | – | – | – | – |
| COc1cc(C(=O)/C=C/c2c(-c3ccc(F)cc3)nc3ncccn23)cc(OC)c1OC | 2210 nM | 6.45 µM | 3.64 µM | 15.6 | 3.08 | 18.9 µM | 2640 | 24.5 µM | 4.09 µM | – | 1400 nM | 1610 | 3.34 | > 100 µM | 6.7 µM | 3120 | 1440 | 1530 nM | 4.45 µM | – |
| COc1cc2c(cc1OCCCCCn1c(-c3ccco3)nc3ccccc31)N=C[C@@H]1CCCN1C2=O | – | – | < 0.01 µM | 19 | < 0.01 | < 0.0136 µM | < 10 | 1.1 µM | – | < 0.0106 µM | < 10 nM | < 10 | < 0.01 | > 100 µM | – | < 10 | – | < 10 nM | 16.1 µM | < 10 |
| Cc1cc(NCCCCNc2ccnc3cc(Cl)ccc23)nc(Nc2ccc(C(=O)N3CCCC3)cc2)n1 | 3600 nM | 11.3 µM | 3.81 µM | 5.02 | 5.13 | 18.2 µM | 3490 | 4.74 µM | 3.08 µM | – | 1780 nM | 1720 | 3.29 | 10.7 µM | 9.11 µM | 2210 | 1470 | 1590 nM | 3.55 µM | – |
| COc1ccc(NC(=O)COC(=O)c2cccc3c(=O)c4ccccc4[nH]c23)cc1 | – | 45.6 µM | 43.8 µM | – | – | 44.6 µM | – | 55.1 µM | 35.5 µM | 33.1 µM | – | – | – | 53.2 µM | 67.4 µM | – | – | – | 25.5 µM | – |
| O=C1c2cccc3cccc(c23)C(=O)N1CCCCN1CCN(CCCCOc2ccc(-c3nc4ccc(N5CCOCC5)cc4[nH]3)cc2)CC1 | 3190 nM | > 100 µM | > 100 µM | > 100 | > 100 | > 100 µM | > 100000 | > 100 µM | – | > 100 µM | 12100 nM | > 100000 | > 100 | > 100 µM | > 100 µM | > 100000 | – | > 100000 nM | > 100 µM | > 100000 |
| CN1C(=O)c2cc([N+](=O)[O-])ccc2[C@H]2C(=O)c3cc4c(cc3[C@H]21)OCO4 | 13.4 nM | 0.0463 µM | 0.455 µM | 0.451 | – | – | 588 | > 100 µM | – | 0.337 µM | 75.1 nM | 118 | 0.115 | 1.88 µM | > 100 µM | 158 | 398 | 14.1 nM | 0.128 µM | 35.6 |
| Cc1ccc(NC(=O)COC(=O)c2cccc3c(=O)c4ccccc4[nH]c23)cc1 | – | > 100 µM | > 100 µM | – | – | 96.7 µM | – | > 100 µM | 60.5 µM | > 100 µM | – | – | – | > 100 µM | 92 µM | – | – | – | > 100 µM | – |
| CCCC(=O)Nc1cc([N+](=O)[O-])c([N+](=O)[O-])cc1OC | – | 26.5 µM | 27.8 µM | > 100 | – | 51.2 µM | – | 28.1 µM | – | 33.7 µM | – | – | – | 29.8 µM | 26.8 µM | – | – | – | 32.3 µM | – |
| S=P1(c2ccccc2)Nc2ccc(Cl)cc2N1 (stereo not drawn) | – | > 100 µM | > 100 µM | – | – | > 100 µM | – | > 100 µM | – | 26.4 µM | – | – | – | > 100 µM | > 100 µM | – | – | – | – | – |
| C=CCC12CC(=O)C=C1CCC1(C2)OCCO1 (stereo not drawn) | – | > 100 µM | > 100 µM | – | – | > 100 µM | – | > 100 µM | > 100 µM | > 100 µM | – | – | – | > 100 µM | > 100 µM | – | – | – | > 100 µM | – |
| O=C1Nc2ccccc2/C1=C/c1cn(C(=O)c2c(Cl)cccc2Cl)c2ccccc12 | 3170 nM | 21.7 µM | 3.65 µM | – | 7.48 | 27 µM | 8350 | 40.4 µM | 16.6 µM | 19.9 µM | 1650 nM | – | 3.23 | 17.6 µM | 56.5 µM | 12800 | 4140 | 1670 nM | 3.38 µM | 4800 |
| CCC[CH2][Sn]1([CH2]CCC)[O]C(=O)c2cccc(OC)c2[O]1 | 271 nM | 0.753 µM | 2.01 µM | – | 1.63 | 3.04 µM | 1390 | 3.75 µM | – | 1.18 µM | 626 nM | – | 1.76 | 3.37 µM | 2.71 µM | 2270 | – | 494 nM | 1.69 µM | 312 |
| CC1C=CC(C)C2(O)C(=O)NC(O)C12 (stereo not drawn) | – | > 100 µM | – | – | – | > 100 µM | – | > 100 µM | > 100 µM | > 100 µM | – | – | – | > 100 µM | > 100 µM | – | – | – | > 100 µM | – |
| C/C=C(\CCC1NCCc2c1[nH]c1ccccc21)[Si](C)(C)C (stereo not drawn) | 11400 nM and 2790 nM | 25 µM and 8.04 µM | 2.39 µM and 7.41 µM | – | – | 18.6 µM and 21.6 µM | – | 28.1 µM and 24.5 µM | 17.6 µM and 2.53 µM | 11.8 µM and 12.3 µM | 413 nM and 2910 nM | – | – | 24.9 µM and 21 µM | 25.2 µM and 26.5 µM | – | – | 5600 nM and 1710 nM | 10.3 µM and 3.13 µM | – |
| CN(C)c1ccc(/C=C/c2ccnc3ccccc23)cc1N | – | 24.1 µM | 10.2 µM | 8.29 | – | 36.5 µM | – | 28.4 µM | – | 25.9 µM | – | – | – | 32.6 µM | 31.7 µM | – | – | – | – | – |
| O=C1C2C(C(=O)N1c1ccccc1)C1(c3ccccc3)OC2(c2ccccc2)c2ccccc21 (stereo not drawn) | – | > 100 µM | > 100 µM | – | – | – | – | > 100 µM | > 100 µM | > 100 µM | – | – | – | > 100 µM | > 100 µM | – | – | – | – | – |
